According to US11111264B2, “Morphic forms of 4-amino-7-(3,4-dihydroxy-5-(hydroxymethyl)tetrahydrofuran-2-yl)-2-methyl-7H-pyrrolo[2,3-d]pyrimidine-5-carboxamide and uses thereof” (Chimerix, Inc., priority 2017, dated 2021):

Tests used:
Assay type in all cases: physicochemical
[1] = Dynamic vapor sorption (DVS); conditions: 25° C.; for crystal form after DVS (PXRD): 50% to 0% to 95% to 50% relative humidity; for hygroscopicity (from DVS): mass as a function of relative humidity
Description: FIG. 20A is a DVS diagram of a sample of Compound 1, Form A as a function of time and the applied change in relative humidity. Line A represents the relative weight of the sample at each relative humidity. Line B represents the applied relative humidity (i.e., the applied measurement program). FIG. 20B is a DVS diagram of a sample of Compound 1, Form A as a function of the applied relative humidity. FIG. 20A and FIG. 20B were obtained using a Sorptions Prufsystem ProUmid system using a scan rate of 5% relative humidity per hour at a temperature of 25° C.
DVS measurements were performed with an SPS11-100n “Sorptions Prufsystem” of Projekt Messtechnik”, D-89077 Ulm (Germany). About 20 to 100 mg of sample were put into an aluminum sample pan. Humidity change rates of 5% per hour were used. The applied measurement program is visualized in the figures.

[2] = Thermodynamic stability: stirring a mixture of Forms A-G in solvent/water, PXRD; conditions: for PXRD after stirring mixture of Forms A, B, C, D, E, F and G: four days at room temperature
Description: A mixture of Compound 1, Forms A, B, C, D, E, F and G was stirred in DMF/water 1:1 v/v (water activity about 0.79).
A mixture of Compound 1, Forms A, B, C, D, E, F and G was stirred in methanol/water 95:5 v/v (water activity about 0.18).

[3] = Suspension equilibration of Compound 1, Form A in organic solvents
Description: Compound 1, Form A was stirred in methanol at room temperature for six days. […] At least 90% of Form A was still present.
Additionally, Compound 1, Form A was stirred in acetonitrile at a temperature ranging between 52° C. and 75° C. for five days.

Row | SMILES | crystal form after DVS (PXRD) [1] | hygroscopicity (from DVS) [1] | PXRD after stirring mixture of Forms A, B, C, D, E, F and G ([2]; DMF/water 1:1 v/v (water activity about 0.79)) | relative thermodynamic stability among the seven morphic forms ([2]; conclusion from both slurry experiments) | PXRD after stirring mixture of Forms A, B, C, D, E, F and G ([2]; methanol/water 95:5 v/v (water activity about 0.18)) | resulting crystalline material (PXRD) ([3]; stirred in acetonitrile between 52° C. and 75° C. for five days) | Form A still present (PXRD) ([3]; stirred in methanol at room temperature for six days) | desorption of water (DVS) ([1]; 0% R.H., 5% relative humidity per hour)
1 | Cc1nc(N)c2c(C(N)=O)cn([C@@H]3O[C@H](CO)[C@@H](O)[C@H]3O)c2n1 [Form D, 4-amino-7-((2R,3R,4S,5R)-3,4-dihydroxy-5-(hydroxymethyl)tetrahydrofuran-2-yl)-2-methyl-7H-pyrrolo[2,3-d]pyrimidine-5-carboxamide] | remained as Form D | hygroscopic |  |  |  |  |  | 
2 | Cc1nc(N)c2c(C(N)=O)cn([C@@H]3O[C@H](CO)[C@@H](O)[C@H]3O)c2n1 [Form B, 4-amino-7-((2R,3R,4S,5R)-3,4-dihydroxy-5-(hydroxymethyl)tetrahydrofuran-2-yl)-2-methyl-7H-pyrrolo[2,3-d]pyrimidine-5-carboxamide] | transform in to Form A | hygroscopic |  |  |  |  |  | 
3 | Cc1nc(N)c2c(C(N)=O)cn([C@@H]3O[C@H](CO)[C@@H](O)[C@H]3O)c2n1 [Form E, 4-amino-7-((2R,3R,4S,5R)-3,4-dihydroxy-5-(hydroxymethyl)tetrahydrofuran-2-yl)-2-methyl-7H-pyrrolo[2,3-d]pyrimidine-5-carboxamide] | transformed into Form A | hygroscopic |  |  |  |  |  | 
4 | Cc1nc(N)c2c(C(N)=O)cn([C@@H]3O[C@H](CO)[C@@H](O)[C@H]3O)c2n1 [Form A, 4-amino-7-((2R,3R,4S,5R)-3,4-dihydroxy-5-(hydroxymethyl)tetrahydrofuran-2-yl)-2-methyl-7H-pyrrolo[2,3-d]pyrimidine-5-carboxamide] | same pattern as the sample before DVS | non-hygroscopic | only the peaks of crystal form A | most thermodynamically stable | only the peaks of crystal form A | PXRD pattern similar to Compound 1, Form D | At least 90% | ≤ 0.1 % m/m
